In PubChem BioAssay (NCI):
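Dose response: 5 concentrations. Exposure: 48 h. Format: 96-well plates. Endpoint: linear interpolation; highest concentration if not reached. Definition used: TGI = concentration required for complete inhibition of growth.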

What was measured:
Assay in all cases: DTP human tumour cell line panel, 48 h
[1] = test system: SK-MEL-2 melanoma
[2] = test system: SW-620 colon
[3] = test system: MDA-MB-435
[4] = test system: U251 CNS
[5] = test system: SF-268 CNS
[6] = test system: OVCAR-5 ovarian
[7] = test system: CCRF-CEM leukemia
[8] = test system: SK-MEL-28 melanoma
[9] = test system: NCI-H23 lung
[10] = test system: NCI/ADR-RES ovarian
[11] = test system: SF-539 CNS
[12] = test system: HOP-92 NSCLC
[13] = test system: SNB-19 CNS
[14] = test system: COLO 205 colon
[15] = test system: SF-295 CNS
[16] = test system: HT29 colon
[17] = test system: DU-145 prostate
[18] = test system: A498 renal
[19] = test system: UO-31 renal
[20] = test system: SK-MEL-5 melanoma
[21] = test system: HS 578T breast
[22] = test system: NCI-H522 lung
[23] = test system: OVCAR-8 ovarian
[24] = test system: NCI-H226 lung
[25] = test system: HCT-116 colon
[26] = test system: SNB-75 CNS
[27] = test system: LOX IMVI melanoma
[28] = test system: OVCAR-3 ovarian
[29] = test system: MALME-3M melanoma
[30] = test system: IGROV1 ovarian
[31] = test system: 786-0 renal
[32] = test system: EKVX NSCLC
[33] = test system: HL-60(TB) leukemia
[34] = test system: BT-549 breast
[35] = test system: A549 NSCLC
[36] = test system: MDA-MB-231 breast
[37] = test system: UACC-62 melanoma
[38] = test system: NCI-H460 lung
[39] = test system: T-47D breast
[40] = test system: HOP-62 NSCLC
[41] = test system: MDA-N
[42] = test system: CAKI-1 renal
[43] = test system: MOLT-4 leukemia
[44] = test system: PC-3 prostate
[45] = test system: HCT-15 colon
[46] = test system: UACC-257 melanoma
[47] = test system: TK-10 renal
[48] = test system: MCF7 breast
[49] = test system: KM12 colon
[50] = test system: HCC-2998 colon
[51] = test system: OVCAR-4 ovarian
[52] = test system: SK-OV-3 ovarian
[53] = test system: SN12C renal
[54] = test system: ACHN renal
[55] = test system: M14 melanoma
[56] = test system: RPMI-8226 leukemia
[57] = test system: K-562 leukemia
[58] = test system: RXF 393 renal

SMILES: Fc1ccc(C(OCCN2CC3CC2CN3CCCc2ccccc2)c2ccc(F)cc2)cc1 (stereo unspecified)
- TGI [1]: 21.8 µM
- TGI [2]: 24.1 µM
- TGI [3]: 20.5 µM
- TGI [4]: 19.5 µM
- TGI [5]: 22.4 µM
- TGI [6]: 23.5 µM
- TGI [7]: 21.7 µM
- TGI [8]: 9.09 µM
- TGI [9]: 23.8 µM
- TGI [10]: 19.8 µM
- TGI [11]: 5.12 µM
- TGI [12]: 26.7 µM
- TGI [13]: 27.3 µM
- TGI [14]: 3.11 µM
- TGI [15]: 20.9 µM
- TGI [16]: 15.5 µM
- TGI [17]: 24.3 µM
- TGI [18]: 18.3 µM
- TGI [19]: 24.7 µM
- TGI [20]: 3.39 µM
- TGI [21]: 25.8 µM
- TGI [22]: 21.2 µM
- TGI [23]: 10.1 µM
- TGI [24]: 23.9 µM
- TGI [25]: 18.5 µM
- TGI [26]: 7.2 µM
- TGI [27]: 19.2 µM
- TGI [28]: 25.5 µM
- TGI [29]: 8.27 µM
- TGI [30]: 22.7 µM
- TGI [31]: 18 µM
- TGI [32]: 18.5 µM
- TGI [33]: 12.3 µM
- TGI [34]: 24 µM
- TGI [35]: 26.6 µM
- TGI [36]: 15.7 µM
- TGI [37]: 23.1 µM
- TGI [38]: 17.3 µM
- TGI [39]: 7.21 µM
- TGI [40]: 29.1 µM
- TGI [41]: 19 µM
- TGI [42]: 24.6 µM
- TGI [43]: 12.5 µM
- TGI [44]: 17.7 µM
- TGI [45]: 16.8 µM
- TGI [46]: 12.7 µM
- TGI [47]: 23.7 µM
- TGI [48]: 18.8 µM
- TGI [49]: 21.2 µM
- TGI [50]: 5.7 µM
- TGI [51]: 25.8 µM
- TGI [52]: 31.7 µM
- TGI [53]: 22.1 µM
- TGI [54]: 23.7 µM
- TGI [55]: 3.79 µM
- TGI [56]: 6.54 µM

SMILES: O=C1C=CC(=O)c2c(O)c(Nc3ccc(OC(F)(F)F)cc3)c(Cl)c(O)c21
- TGI [1]: 3.48 µM
- TGI [2]: 2.7 µM
- TGI [3]: 2.17 µM
- TGI [4]: 2.05 µM
- TGI [57]: 4.36 µM
- TGI [5]: 1.49 µM
- TGI [6]: 3.16 µM
- TGI [7]: 4.32 µM
- TGI [8]: 1.97 µM
- TGI [9]: 0.708 µM
- TGI [10]: 4.57 µM
- TGI [11]: 3.36 µM
- TGI [13]: 2.6 µM
- TGI [58]: 1.39 µM
- TGI [14]: 2.84 µM
- TGI [15]: 4.62 µM
- TGI [16]: 1.28 µM
- TGI [17]: 1.37 µM
- TGI [18]: 9.36 µM
- TGI [19]: 5.58 µM
- TGI [20]: 5.15 µM
- TGI [21]: 10.8 µM
- TGI [22]: 2.87 µM
- TGI [23]: 8.25 µM
- TGI [24]: 3.44 µM
- TGI [25]: 0.455 µM
- TGI [26]: 1.79 µM
- TGI [27]: 0.677 µM
- TGI [28]: 1.45 µM
- TGI [29]: 2.47 µM
- TGI [31]: 1.26 µM
- TGI [32]: 2.17 µM
- TGI [33]: 3.24 µM
- TGI [34]: 3.12 µM
- TGI [35]: 11.7 µM
- TGI [36]: 1.41 µM
- TGI [37]: 2.29 µM
- TGI [38]: 3.6 µM
- TGI [39]: 0.972 µM
- TGI [40]: 2.57 µM
- TGI [41]: 5.2 µM
- TGI [42]: 2.96 µM
- TGI [44]: 9.62 µM
- TGI [45]: 1.44 µM
- TGI [46]: 7.95 µM
- TGI [47]: 2.81 µM
- TGI [48]: 1.8 µM
- TGI [49]: 2.95 µM
- TGI [50]: 1.27 µM
- TGI [51]: 2.98 µM
- TGI [52]: 3.19 µM
- TGI [53]: 1.17 µM
- TGI [54]: 2.76 µM
- TGI [55]: 1.22 µM
- TGI [56]: 0.285 µM
